Experimental data as given in paper PMC7930286 (Heliyon, 2021).

What was measured:
α-amylase = experiment: Inhibitory assay of α-amylase; type: biochemical; details: for Alpha-amylase % inhibition (mean ± SEM): n = 3
[1] = ABTS free radical scavenging assay; details: for ABTS percent inhibition (mean ± S.E.M): n = 3
[2] = DPPH free radical scavenging assay; details: for DPPH Percent inhibition (mean ± S.E.M): n = 3
[3] = target: butyrylcholinesterase (BChE) (Homo sapiens, UniProt P06276); experiment: Anticholinesterase; type: biochemical; details: for inhibition at 62.5 µg/mL: read-out: Percent BChE inhibition (mean ± SEM), 62.5 μg/mL; for inhibition at 125 µg/mL: read-out: Percent BChE inhibition (mean ± SEM), 125 μg/mL; for inhibition at 250 µg/mL: read-out: Percent BChE inhibition (mean ± SEM), 250 μg/mL; for inhibition at 500 µg/mL: read-out: Percent BChE inhibition (mean ± SEM), 500 μg/mL; for inhibition at 1000 µg/mL: read-out: Percent BChE inhibition (mean ± SEM), 1000 μg/mL
Chain of butyrylcholinesterase (BChE) (P06276 29-602, species assumed): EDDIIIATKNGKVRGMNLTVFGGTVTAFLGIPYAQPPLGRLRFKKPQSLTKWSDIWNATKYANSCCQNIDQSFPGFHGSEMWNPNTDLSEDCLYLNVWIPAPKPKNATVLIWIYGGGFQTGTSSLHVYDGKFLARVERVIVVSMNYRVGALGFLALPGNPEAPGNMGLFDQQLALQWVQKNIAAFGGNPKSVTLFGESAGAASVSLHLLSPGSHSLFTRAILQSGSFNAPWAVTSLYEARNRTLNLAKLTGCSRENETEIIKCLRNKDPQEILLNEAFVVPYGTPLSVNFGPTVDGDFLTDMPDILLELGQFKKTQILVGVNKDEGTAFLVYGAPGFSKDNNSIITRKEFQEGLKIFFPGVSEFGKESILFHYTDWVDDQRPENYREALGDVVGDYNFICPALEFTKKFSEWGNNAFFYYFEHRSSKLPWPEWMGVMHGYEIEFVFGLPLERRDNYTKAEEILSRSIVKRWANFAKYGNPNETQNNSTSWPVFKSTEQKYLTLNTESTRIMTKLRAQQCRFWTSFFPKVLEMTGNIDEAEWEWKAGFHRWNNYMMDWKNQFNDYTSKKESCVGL

α-glucosidase = experiment: Inhibitory assay of α-glucosidase; type: biochemical; details: for Alpha-glucosidase %inhibition (mean ± SEM): n = 3
[4] = target: acetylcholinesterase (AChE) (Homo sapiens, UniProt P22303); experiment: biochemical; details: for inhibition at 62.5 µg/mL / inhibition at 250 µg/mL / inhibition at 500 µg/mL / inhibition at 1000 µg/mL: read-out: Percent AChE inhibition (mean ± SEM)
Chain of acetylcholinesterase (AChE) (P22303 32-614, species assumed): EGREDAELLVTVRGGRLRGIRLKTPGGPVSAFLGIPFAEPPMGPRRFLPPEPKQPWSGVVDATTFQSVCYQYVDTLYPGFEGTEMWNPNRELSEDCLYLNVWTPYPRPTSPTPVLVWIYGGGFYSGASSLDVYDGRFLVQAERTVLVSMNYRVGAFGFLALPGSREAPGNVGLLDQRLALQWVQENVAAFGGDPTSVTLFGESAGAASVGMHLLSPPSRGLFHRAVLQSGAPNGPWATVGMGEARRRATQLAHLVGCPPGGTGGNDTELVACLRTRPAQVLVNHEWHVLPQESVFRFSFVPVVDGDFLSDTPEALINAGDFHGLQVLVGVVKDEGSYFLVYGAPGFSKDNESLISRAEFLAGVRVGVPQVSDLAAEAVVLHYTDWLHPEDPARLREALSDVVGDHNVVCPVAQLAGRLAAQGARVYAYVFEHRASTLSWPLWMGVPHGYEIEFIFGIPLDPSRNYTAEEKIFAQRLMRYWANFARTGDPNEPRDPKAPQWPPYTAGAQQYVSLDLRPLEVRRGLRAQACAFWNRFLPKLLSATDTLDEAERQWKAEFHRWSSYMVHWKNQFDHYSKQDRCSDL

[5] = Solubility description of isolated compounds; type: physicochemical

C[C@H]1O[C@H](O[C@H]2[C@H](O)[C@@H](O)[C@@H](O[C@H]3[C@H](O)[C@@H](O)C(O)O[C@@H]3CO)O[C@@H]2CO)[C@H](O)[C@@H](O)[C@@H]1N[C@H]1C=C(CO)[C@@H](O)[C@H](O)[C@H]1O (some centres unmarked) [Acarbose, reference compound]
Alpha-amylase % inhibition (mean ± SEM) (α-amylase; 125 μg/mL): 57.0 ± 1.2%
Alpha-amylase % inhibition (mean ± SEM) (α-amylase; 250 μg/mL): 66.4 ± 1.2%
Alpha-amylase % inhibition (mean ± SEM) (α-amylase; 500 μg/mL): 77.1 ± 1.4%
Alpha-amylase % inhibition (mean ± SEM) (α-amylase; 1000 μg/mL): 92.1 ± 0.8%

O=C1O[C@H]([C@@H](O)CO)C(O)=C1O [Ascorbic acid, reference compound]
ABTS IC50 [1]: 39 µg/mL
ABTS percent inhibition (mean ± S.E.M) ([1]; 62.5 μg/mL): 52.1 ± 1.1%
ABTS percent inhibition (mean ± S.E.M) ([1]; 250 μg/mL): 72.1 ± 0.4%
ABTS percent inhibition (mean ± S.E.M) ([1]; 500 μg/mL): 83.1 ± 1.1%
ABTS percent inhibition (mean ± S.E.M) ([1]; 1000 μg/mL): 93.0 ± 0.7%
DPPH IC50 [2]: 38 µg/mL
DPPH Percent inhibition (mean ± S.E.M) ([2]; 62.5 μg/mL): 52.2 ± 2.3%
DPPH Percent inhibition (mean ± S.E.M) ([2]; 125 μg/mL): 63.2 ± 1.1%
DPPH Percent inhibition (mean ± S.E.M) ([2]; 250 μg/mL): 73.8 ± 2.2%
DPPH Percent inhibition (mean ± S.E.M) ([2]; 500 μg/mL): 84.1 ± 0.4%
DPPH Percent inhibition (mean ± S.E.M) ([2]; 1000 μg/mL): 93.2 ± 0.1%

COc1ccc(C(=O)O)cc1OC [Compound VI, 3,4-dimethoxy benzoic acid]
Percent BChE inhibition (mean ± SEM) ([3]; 1000 μg/mL, n = 3): 79.8 ± 1.4∗∗ %
inhibition at 62.5 µg/mL ([3]; n = 3): 47 ± 1.1%
inhibition at 125 µg/mL ([3]; n = 3): 53.5 ± 1.6%
inhibition at 250 µg/mL ([3]; n = 3): 61.4 ± 0.3%
inhibition at 500 µg/mL ([3]; n = 3): 71.1 ± 1.6%
Alpha-glucosidase IC50 (α-glucosidase): 84 µg/mL
Alpha-glucosidase %inhibition (mean ± SEM) (α-glucosidase; 125 μg/mL): 54.3 ± 1.5∗∗∗ %
Alpha-glucosidase %inhibition (mean ± SEM) (α-glucosidase; 250 μg/mL): 62.5 ± 2.4∗∗∗ %
Alpha-glucosidase %inhibition (mean ± SEM) (α-glucosidase; 500 μg/mL): 68.2 ± 1.7∗∗ %
Alpha-glucosidase %inhibition (mean ± SEM) (α-glucosidase; 1000 μg/mL): 84.6 ± 1.5∗∗∗∗ %
Alpha-amylase IC50 (α-amylase): 112 µg/mL
Alpha-amylase % inhibition (mean ± SEM) (α-amylase; 125 μg/mL): 50.3 ± 2.4∗∗ %
Alpha-amylase % inhibition (mean ± SEM) (α-amylase; 250 μg/mL): 59.1 ± 1.9∗∗∗∗ %
Alpha-amylase % inhibition (mean ± SEM) (α-amylase; 500 μg/mL): 71.3 ± 1.7∗∗∗∗ %
Alpha-amylase % inhibition (mean ± SEM) (α-amylase; 1000 μg/mL): 79.0 ± 3.2∗∗∗∗ %
IC50 [4]: 494 µM
inhibition at 62.5 µg/mL [4]: 47.2 ± 1.5%
inhibition at 250 µg/mL [4]: 62.1 ± 2%
inhibition at 500 µg/mL [4]: 71.2 ± 1.8%
inhibition at 1000 µg/mL [4]: 80.7 ± 1.1%
ABTS IC50 [1]: 67 µg/mL
ABTS percent inhibition (mean ± S.E.M) ([1]; 62.5 μg/mL): 48.2 ± 1.3∗∗ %
ABTS percent inhibition (mean ± S.E.M) ([1]; 250 μg/mL): 61.1 ± 1.4∗∗∗ %
ABTS percent inhibition (mean ± S.E.M) ([1]; 500 μg/mL): 71.0 ± 1.6∗∗∗∗ %
ABTS percent inhibition (mean ± S.E.M) ([1]; 1000 μg/mL): 81.2 ± 1.0∗∗∗∗ %
solubility (description) [5]: soluble in organic solvents
DPPH IC50 [2]: 67 µg/mL
DPPH Percent inhibition (mean ± S.E.M) ([2]; 62.5 μg/mL): 48.2 ± 2.3 ^ns %
DPPH Percent inhibition (mean ± S.E.M) ([2]; 125 μg/mL): 54.7 ± 2.1∗∗ %
DPPH Percent inhibition (mean ± S.E.M) ([2]; 250 μg/mL): 63.7 ± 0.8∗∗∗∗ %
DPPH Percent inhibition (mean ± S.E.M) ([2]; 500 μg/mL): 72.3 ± 0.3∗∗∗∗ %
DPPH Percent inhibition (mean ± S.E.M) ([2]; 1000 μg/mL): 82.1 ± 1.2∗∗∗∗ %

CCCCCCCOc1ccc(C(=O)O)cc1 [Compound VII, 4-heptyloxy benzoic acid]
IC50 ([3]; BChE IC50): 381 µM
inhibition at 62.5 µg/mL ([3]; n = 3): 47.2 ± 1.2%
inhibition at 125 µg/mL ([3]; n = 3): 53.4 ± 1.1%
inhibition at 250 µg/mL ([3]; n = 3): 62.1%
inhibition at 500 µg/mL ([3]; n = 3): 71.1 ± 0.8%
inhibition at 1000 µg/mL ([3]; n = 3): 80 ± 1.1%
Alpha-glucosidase IC50 (α-glucosidase): 108 µg/mL
Alpha-amylase IC50 (α-amylase): 110 µg/mL
Alpha-amylase % inhibition (mean ± SEM) (α-amylase; 125 μg/mL): 51.4 ± 1.5∗∗∗ %
Alpha-amylase % inhibition (mean ± SEM) (α-amylase; 250 μg/mL): 61.2 ± 2.2∗ %
Alpha-amylase % inhibition (mean ± SEM) (α-amylase; 500 μg/mL): 64.5 ± 2.8∗∗ %
Alpha-amylase % inhibition (mean ± SEM) (α-amylase; 1000 μg/mL): 73.3 ± 1.1∗∗∗∗ %
IC50 [4]: 377 µM
inhibition at 62.5 µg/mL [4]: 47.8 ± 1.3%
inhibition at 250 µg/mL [4]: 62.3 ± 1.1%
inhibition at 500 µg/mL [4]: 71.5 ± 1.6%
inhibition at 1000 µg/mL [4]: 80.1 ± 1.2%
ABTS IC50 [1]: 115 µg/mL
ABTS percent inhibition (mean ± S.E.M) ([1]; 62.5 μg/mL): 46.1 ± 1.9∗∗ %
ABTS percent inhibition (mean ± S.E.M) ([1]; 250 μg/mL): 62.1 ± 1.3∗∗∗ %
ABTS percent inhibition (mean ± S.E.M) ([1]; 500 μg/mL): 71.2 ± 2.1∗∗∗∗ %
ABTS percent inhibition (mean ± S.E.M) ([1]; 1000 μg/mL): 80.1 ± 1.0∗∗∗∗ %
solubility (description) [5]: soluble in organic solvents
DPPH IC50 [2]: 118 µg/mL
DPPH Percent inhibition (mean ± S.E.M) ([2]; 62.5 μg/mL): 46.7 ± 2.1∗∗ %
DPPH Percent inhibition (mean ± S.E.M) ([2]; 125 μg/mL): 51.9 ± 1.3∗∗ %
DPPH Percent inhibition (mean ± S.E.M) ([2]; 250 μg/mL): 62.5 ± 1.1∗∗∗∗ %
DPPH Percent inhibition (mean ± S.E.M) ([2]; 500 μg/mL): 71.2 ± 1.3∗∗∗∗ %
DPPH Percent inhibition (mean ± S.E.M) ([2]; 1000 μg/mL): 80.4 ± 1.1∗∗∗∗ %

COc1ccc2c3c1O[C@H]1C[C@@H](O)C=C[C@@]31CCN(C)C2 [Galantamine, reference compound]
inhibition at 62.5 µg/mL ([3]; n = 3): 54.1 ± 1%
inhibition at 250 µg/mL ([3]; n = 3): 71.8 ± 1.5%
inhibition at 500 µg/mL ([3]; n = 3): 81.8 ± 1.4%
inhibition at 1000 µg/mL ([3]; n = 3): 92 ± 0.8%
